Results from patent US12077503B2, “Substituted cyclic amides and their use as herbicides” (FMC CORPORATION, priority 2015, dated 2024).

What was measured:
Format in all cases: in vivo
[1] = system: giant foxtail (Setaria faberi); test: Test G Post-Emergence Protocol; conditions: Setaria faberi, post-emergence, 312 h; for pest or weed control at 15.625 g/ha: 15.625 g ai/ha, evaluated after 13 days (100=total damage to plant; 0=no damage to plant), read-out: Foxtail, Giant damage rating; for pest or weed control at 62.5 g/ha: 62.5 g ai/ha, read-out: Foxtail, Giant damage rating (100=total damage to plant; 0=no damage to plant); for pest or weed control at 62.5 g/ha / pest or weed control at 250 g/ha: evaluated after 13 days; for pest or weed control at 250 g/ha: 250 g ai/ha, read-out: damage to plant, Foxtail, Giant (100=total damage to plant; 0=no damage to plant)
Outline: (§1)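 A glasshouse post-emergence test: 8-day-old plants sprayed at 15.625, 62.5 or 250 g/ha, then grown at 24/16 °C day/night with 14 h light and 65% humidity. Damage rated 13 days later, 0–100.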

[2] = system: ivy-leaved morning glory (Ipomoea hederacea); test: Test G Post-Emergence Protocol; conditions: Ipomoea, post-emergence, 312 h; for pest or weed control at 15.625 g/ha: 15.625 g ai/ha, evaluated after 13 days (100=total damage to plant; 0=no damage to plant), read-out: Morningglory, Ivy-leaved damage rating; for pest or weed control at 62.5 g/ha: 62.5 g ai/ha, read-out: Morningglory, Ivy-leaved damage rating (100=total damage to plant; 0=no damage to plant); for pest or weed control at 62.5 g/ha / pest or weed control at 250 g/ha: evaluated after 13 days; for pest or weed control at 250 g/ha: 250 g ai/ha, read-out: damage to plant, Morningglory, Ivy-leaved (100=total damage to plant; 0=no damage to plant)
Outline: as §1

[3] = system: redroot pigweed (Amaranthus retroflexus); test: Test G Post-Emergence Protocol; conditions: Amaranthus retroflexus, post-emergence, 312 h; for pest or weed control at 15.625 g/ha: 15.625 g ai/ha, evaluated after 13 days (100=total damage to plant; 0=no damage to plant), read-out: Pigweed, Redroot damage rating; for pest or weed control at 62.5 g/ha: 62.5 g ai/ha, read-out: Pigweed, Redroot damage rating (100=total damage to plant; 0=no damage to plant); for pest or weed control at 62.5 g/ha / pest or weed control at 250 g/ha: evaluated after 13 days; for pest or weed control at 250 g/ha: 250 g ai/ha, read-out: damage to plant, Pigweed, Redroot (100=total damage to plant; 0=no damage to plant)
Outline: as §1

corn (Zea mays) [4] = test: Test G Post-Emergence Protocol; conditions: Zea mays, post-emergence, 312 h; for plant injury at 15.625 g/ha: 15.625 g ai/ha, evaluated after 13 days (100=total damage to plant; 0=no damage to plant), read-out: Corn damage rating; for plant injury at 62.5 g/ha: 62.5 g ai/ha, read-out: Corn damage rating (100=total damage to plant; 0=no damage to plant); for plant injury at 62.5 g/ha / plant injury at 250 g/ha: evaluated after 13 days; for plant injury at 250 g/ha: 250 g ai/ha, read-out: damage to plant, Corn (100=total damage to plant; 0=no damage to plant)
Outline: as §1

[5] = system: barnyardgrass (Echinochloa crus-galli); test: Test G Post-Emergence Protocol; conditions: Echinochloa crus-galli, post-emergence, 312 h; for pest or weed control at 15.625 g/ha: 15.625 g ai/ha, evaluated after 13 days (100=total damage to plant; 0=no damage to plant), read-out: Barnyardgrass damage rating; for pest or weed control at 62.5 g/ha: 62.5 g ai/ha, read-out: Barnyardgrass damage rating (100=total damage to plant; 0=no damage to plant); for pest or weed control at 62.5 g/ha / pest or weed control at 250 g/ha: evaluated after 13 days; for pest or weed control at 250 g/ha: 250 g ai/ha, read-out: damage to plant, Barnyardgrass (100=total damage to plant; 0=no damage to plant)
Outline: as §1

[6] = system: velvetleaf (Abutilon theophrasti); test: Test G Post-Emergence Protocol; conditions: Abutilon theophrasti, post-emergence, 312 h; for pest or weed control at 15.625 g/ha: 15.625 g ai/ha, evaluated after 13 days (100=total damage to plant; 0=no damage to plant), read-out: Velvetleaf damage rating; for pest or weed control at 62.5 g/ha: 62.5 g ai/ha, read-out: Velvetleaf damage rating (100=total damage to plant; 0=no damage to plant); for pest or weed control at 62.5 g/ha / pest or weed control at 250 g/ha: evaluated after 13 days; for pest or weed control at 250 g/ha: 250 g ai/ha, read-out: damage to plant, Velvetleaf (100=total damage to plant; 0=no damage to plant)
Outline: as §1

[7] = system: giant foxtail (Setaria faberi); test: Test G Pre-Emergence Protocol; conditions: Setaria faberi, pre-emergence, 312 h, evaluated after 13 days; for pest or weed control at 15.625 g/ha: 15.625 g ai/ha; for pest or weed control at 15.625 g/ha / pest or weed control at 250 g/ha: read-out: Foxtail, Giant damage rating (100=total damage to plant; 0=no damage to plant); for pest or weed control at 62.5 g/ha: 62.5 g ai/ha, 100=total damage to plant, 0=no damage to plant, read-out: plant damage rating, Foxtail, Giant; for pest or weed control at 250 g/ha: 250 g ai/ha
Outline: (§2)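 Herbicidal effect was rated 13 days post-application on a scale where 100 equals total damage. Spraying took place the day after sowing, using 15.625, 62.5 or 250 g/ha of compound in a 50:50 acetone/water solution with 0.5% Tween 20.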

[8] = system: ivy-leaved morning glory (Ipomoea hederacea); test: Test G Pre-Emergence Protocol; conditions: Ipomoea, pre-emergence, 312 h, evaluated after 13 days; for pest or weed control at 15.625 g/ha: 15.625 g ai/ha, read-out: Morning-glory, Ivy-leaved damage rating (100=total damage to plant; 0=no damage to plant); for pest or weed control at 62.5 g/ha: 62.5 g ai/ha, 100=total damage to plant, 0=no damage to plant, read-out: plant damage rating, Morningglory, Ivy-leaved; for pest or weed control at 250 g/ha: 250 g ai/ha, read-out: Morningglory, Ivy-leaved damage rating (100=total damage to plant; 0=no damage to plant)
Outline: as §2

[9] = system: redroot pigweed (Amaranthus retroflexus); test: Test G Pre-Emergence Protocol; conditions: Amaranthus retroflexus, pre-emergence, 312 h, evaluated after 13 days; for pest or weed control at 15.625 g/ha: 15.625 g ai/ha; for pest or weed control at 15.625 g/ha / pest or weed control at 250 g/ha: read-out: Pigweed, Redroot damage rating (100=total damage to plant; 0=no damage to plant); for pest or weed control at 62.5 g/ha: 62.5 g ai/ha, 100=total damage to plant, 0=no damage to plant, read-out: plant damage rating, Pigweed, Redroot; for pest or weed control at 250 g/ha: 250 g ai/ha
Outline: as §2

corn (Zea mays) [10] = test: Test G Pre-Emergence Protocol; conditions: Zea mays, pre-emergence, 312 h, evaluated after 13 days; for plant injury at 15.625 g/ha: 15.625 g ai/ha; for plant injury at 15.625 g/ha / plant injury at 250 g/ha: read-out: Corn damage rating (100=total damage to plant; 0=no damage to plant); for plant injury at 62.5 g/ha: 62.5 g ai/ha, 100=total damage to plant, 0=no damage to plant, read-out: plant damage rating, Corn; for plant injury at 250 g/ha: 250 g ai/ha
Outline: as §2

[11] = system: barnyardgrass (Echinochloa crus-galli); test: Test G Pre-Emergence Protocol; conditions: Echinochloa crus-galli, pre-emergence, 312 h, evaluated after 13 days; for pest or weed control at 15.625 g/ha: 15.625 g ai/ha, read-out: Barnyard grass damage rating (100=total damage to plant; 0=no damage to plant); for pest or weed control at 62.5 g/ha: 62.5 g ai/ha, 100=total damage to plant, 0=no damage to plant, read-out: plant damage rating, Barnyardgrass; for pest or weed control at 250 g/ha: 250 g ai/ha, read-out: Barnyardgrass damage rating (100=total damage to plant; 0=no damage to plant)
Outline: as §2

[12] = system: velvetleaf (Abutilon theophrasti); test: Test G Pre-Emergence Protocol; conditions: Abutilon theophrasti, pre-emergence, 312 h, evaluated after 13 days; for pest or weed control at 15.625 g/ha: 15.625 g ai/ha; for pest or weed control at 15.625 g/ha / pest or weed control at 250 g/ha: read-out: Velvetleaf damage rating (100=total damage to plant; 0=no damage to plant); for pest or weed control at 62.5 g/ha: 62.5 g ai/ha, 100=total damage to plant, 0=no damage to plant, read-out: plant damage rating, Velvetleaf; for pest or weed control at 250 g/ha: 250 g ai/ha
Outline: as §2

| Compound | pest or weed control at 15.625 g/ha [1] | pest or weed control at 62.5 g/ha [1] | pest or weed control at 250 g/ha [1] | pest or weed control at 15.625 g/ha [2] | pest or weed control at 62.5 g/ha [2] | pest or weed control at 250 g/ha [2] | pest or weed control at 15.625 g/ha [3] | pest or weed control at 62.5 g/ha [3] | pest or weed control at 250 g/ha [3] | plant injury at 15.625 g/ha (corn (Zea mays) [4]) | plant injury at 62.5 g/ha (corn (Zea mays) [4]) | plant injury at 250 g/ha (corn (Zea mays) [4]) | pest or weed control at 15.625 g/ha [5] | pest or weed control at 62.5 g/ha [5] | pest or weed control at 250 g/ha [5] | pest or weed control at 15.625 g/ha [6] | pest or weed control at 62.5 g/ha [6] | pest or weed control at 250 g/ha [6] | pest or weed control at 15.625 g/ha [7] | pest or weed control at 62.5 g/ha [7] | also measured |
| --- | --- | --- | --- | --- | --- | --- | --- | --- | --- | --- | --- | --- | --- | --- | --- | --- | --- | --- | --- | --- | --- |
| Cc1c(NC(=O)[C@H]2C(=O)N(C)C[C@@H]2c2ccc(C(F)(F)F)cc2)cccc1[N+](=O)[O-] (racemic) [Compound 1423] | 0% | 20% | 60% | 0% | 0% | 0% | 0% | 0% | 50% | 10% | 0% | 10% | 0% | 10% | 10% | 0% | 0% | 0% | 10% | 60% | pest or weed control at 250 g/ha [7]: 70%; pest or weed control at 15.625 g/ha [8]: 0%; pest or weed control at 62.5 g/ha [8]: 0%; pest or weed control at 250 g/ha [8]: 0%; pest or weed control at 15.625 g/ha [9]: 0%; pest or weed control at 62.5 g/ha [9]: 0%; pest or weed control at 250 g/ha [9]: 0%; plant injury at 15.625 g/ha (corn (Zea mays) [10]): 10%; plant injury at 62.5 g/ha (corn (Zea mays) [10]): 20%; plant injury at 250 g/ha (corn (Zea mays) [10]): 10%; pest or weed control at 15.625 g/ha [11]: 10%; pest or weed control at 62.5 g/ha [11]: 10%; pest or weed control at 250 g/ha [11]: 30%; pest or weed control at 15.625 g/ha [12]: 0%; pest or weed control at 62.5 g/ha [12]: 0%; pest or weed control at 250 g/ha [12]: 0% |
| CN1C[C@H](c2ccc3c(c2)CCCC3)[C@@H](C(=O)Nc2cccc(F)c2F)C1=O (racemic) [Compound 1496] | 20% | 60% | 60% | 0% | 0% | 0% | 0% | 0% | 0% | 10% | 20% | 50% | 20% | 50% | 60% | 0% | 0% | 20% | 0% | 50% | pest or weed control at 250 g/ha [7]: 80%; pest or weed control at 15.625 g/ha [8]: 0%; pest or weed control at 62.5 g/ha [8]: 0%; pest or weed control at 250 g/ha [8]: 0%; pest or weed control at 15.625 g/ha [9]: 0%; pest or weed control at 62.5 g/ha [9]: 0%; pest or weed control at 250 g/ha [9]: 0%; plant injury at 15.625 g/ha (corn (Zea mays) [10]): 0%; plant injury at 62.5 g/ha (corn (Zea mays) [10]): 0%; plant injury at 250 g/ha (corn (Zea mays) [10]): 20%; pest or weed control at 15.625 g/ha [11]: 0%; pest or weed control at 62.5 g/ha [11]: 40%; pest or weed control at 250 g/ha [11]: 80%; pest or weed control at 15.625 g/ha [12]: 0%; pest or weed control at 62.5 g/ha [12]: 0%; pest or weed control at 250 g/ha [12]: 0% |
